Results: patent publication US20260306476A1, “ANTIBACTERIAL COMPOUND PBT2” (priority 2022, published 2026)

Legend:
[1] = test system: Neisseria gonorrhoeae strain WHO Z; settings: strain phenotype; cited from earlier work
[2] = test system: Neisseria gonorrhoeae ATCC49226; experiment: MIC of PBT2 and comparators against CLSI reference strain; type: cell-based; settings: ATCC49226, comparator antimicrobials
Text: 13 multidrug resistant WHO strains of Neisseria gonorrhoeae were selected to cover antimicrobial resistance phenotypes to all the antibiotics currently used.

[3] = test system: Neisseria gonorrhoeae ATCC49226; settings: cited from earlier work
[4] = test system: Neisseria gonorrhoeae strain WHO Z; experiment: Ex vivo Neisseria gonorrhoeae infection of human cervical (Pex) cells; type: cell-based
Text: FIG. 4: Chart indicating PBT2 can cure Neisseria gonorrhoeae infection of human cervical (Pex) cells. […] Ceftriaxone (CRO, positive control) is currently recommended for gonorrhoea treatment. Veh—0.1% DMSO vehicle control; UT—untreated; * p<0.0001 versus vehicle for CRO or PBT2 treatment.
To assess the ability of PBT2 to cure an established gonococcal infection in a human ex vivo system, primary human cervical epithelial (Pex) cells were challenged with Neisseria gonorrhoeae strain WHO Z for 90 min and then treated with 0.1% DMSO (vehicle control), PBT2 (0.016 mg/L to 4.695 mg/L), or ceftriaxone (0.5 mg/L, positive control) for 24 h. Viable gonococci were then enumerated. […] PBT2-induced Pex cell cytotoxicity was not observed during the assay.

[5] = test system: Neisseria gonorrhoeae strain WHO Z; experiment: MIC of Triton X-100 with/without PBT2; type: cell-based
Text: Without wishing to be bound by theory, the inventors hypothesise that this may due to the fact PBT2 is a derivative of the iron chelator clioquinol and PBT2 has the capacity to chelate a range of heavy metals including iron. Genes encoding metal homeostasis proteins (blue dots) are presented in the volcano plot (FIG. 3). Metal homeostasis was previously identified as a crucial feature of gonococcal biology, and therefore it is postulated this may be an “Achilles' heel” with respect to Neisseria gonorrhoeae ionophore sensitivity. […] MpeR is an iron-repressed, AraC-like protein that regulates the mtr efflux locus (involved in antimicrobial susceptibility) in Neisseria gonorrhoeae. Up-regulation of mpeR (e. g. by PBT2) down-regulates MtrF and, in turn, would increase Neisseria gonorrhoeae sensitivity to the antimicrobial detergent, Triton X-100 (22). […] Thus, without wishing to be bound to theory, the inventors hypothesise that PBT2 may influence bacterial iron homeostasis and trigger general defence mechanisms, such as Mtr-mediated antimicrobial efflux, but the Mtr-system may be unable to protect against PBT2.

Neisseria gonorrhoeae = experiment: Antibiotic resistance development test over 30 days; type: cell-based; settings: control; 30 days of treatment
Method: FIG. 2: Antibiotic resistance development assay of PBT2.
Resistance development was tested over a 30 day period with PBT2 and using Kanamycin as a control.

[6] = test system: Streptococcus uberis (S. uberis); settings: in the absence of an antibiotic; cited from earlier work
[7] = test system: erythromycin-resistant group A Streptococcus (GAS); settings: in the absence of an antibiotic; cited from earlier work
[8] = test system: methicillin-resistant Staphylococcus aureus (MRSA); settings: in the absence of an antibiotic; cited from earlier work
[9] = test system: vancomycin-resistant Enterococcus (VRE); settings: in the absence of an antibiotic; cited from earlier work

In the case of `C=CC1=C(C(=O)O)N2C(=O)[C@@H](NC(=O)/C(=N\OCC(=O)O)c3csc(N)n3)[C@H]2SC1` [cefixime], the “resistance of WHO Z” value [1] is given as “resistant”.
For `O=C(O)c1cn(C2CC2)c2cc(N3CCNCC3)c(F)cc2c1=O` [Ciprofloxacin], the “resistance of WHO Z” value [1] is given as “resistant”.
In the case of `CC1(C)S[C@@H]2[C@H](NC(=O)Cc3ccccc3)C(=O)N2[C@H]1C(=O)O` [penicillin G], the “resistance of WHO Z” value [1] is listed as “resistant”.
In the case of `CN(C)[C@@H]1C(O)=C(C(N)=O)C(=O)[C@@]2(O)C(O)=C3C(=O)c4c(O)cccc4[C@@](C)(O)[C@H]3C[C@@H]12` [Tetracycline, reference compound], the MIC ([2]; agar dilution) is given as 0.25 µg/mL, the MIC ([2]; broth dilution) is given as 0.25 µg/mL and the “CLSI agar dilution MIC QC range” value [3] is given as 0.25 to 1 µg/mL. For the same molecule, the “resistance of WHO Z” value [1] was “resistant”.
For `CO/N=C(\C(=O)N[C@@H]1C(=O)N2C(C(=O)O)=C(CSc3nc(=O)c(=O)[nH]n3C)CS[C@H]12)c1csc(N)n1` [ceftriaxone, reference compound], the “susceptibility of WHO Z” value ([4]; ceftriaxone positive control (0.5 mg/L)) is listed as “susceptible”, the p versus vehicle ([4]; survival at 24 h, FIG. 4, CRO 0.5 mg/L) is listed as less than 0.0001 and the “resistance of WHO Z” value [1] is listed as “resistant”.
In the case of Triton X-100, the “MIC of Triton X-100” value ([5]; in the presence of 0.156 mg/L (sub-MIC) PBT2) is reported as 125 µg/mL and the “MIC of Triton X-100” value ([5]; without PBT2) is reported as greater than 1000 µg/mL.
For `NC[C@H]1O[C@H](O[C@H]2[C@H](O)[C@@H](O[C@H]3O[C@H](CO)[C@@H](O)[C@H](N)[C@H]3O)[C@H](N)C[C@@H]2N)[C@H](O)[C@@H](O)[C@@H]1O` [Kanamycin, reference compound], the “development of resistance to kanamycin” value (Neisseria gonorrhoeae) was “development of resistance”.
For zinc [reference compound], the antibacterial activity [6] is given as “neither PBT2 nor zinc alone displayed antibacterial activity which would be suitable to treat an infection”, the antibacterial activity [7] is given as “neither PBT2 nor zinc alone displayed antibacterial activity which would be suitable to treat an infection” and the antibacterial activity [8] is given as “neither PBT2 nor zinc alone displayed antibacterial activity which would be suitable to treat an infection”. For the same molecule, the antibacterial activity [9] was “neither PBT2 nor zinc alone displayed antibacterial activity which would be suitable to treat an infection”.
For `CC[C@H]1OC(=O)[C@H](C)[C@@H](O[C@H]2C[C@@](C)(OC)[C@@H](O)[C@H](C)O2)[C@H](C)[C@@H](O[C@@H]2O[C@H](C)C[C@H](N(C)C)[C@H]2O)[C@](C)(O)C[C@@H](C)CN(C)[C@H](C)[C@@H](O)[C@]1(C)O` [azithromycin], the “resistance of WHO Z” value [1] is listed as “resistant”.
